Data reported in PubChem BioAssay AID1259407 (Chemical Carcinogenesis Research Information System (CCRIS), 2018).
Active and inactive are the calls of the source. How the calls were made is not given here.

System: CCRIS mutagenicity, Ames/micronucleus/aberration tests
Assay: CCRIS mutagenicity studies
[1] = Test System: AMES SALMONELLA TYPHIMURIUM, Strain/Indicator: TA98, Metabolic Activation: NONE, Method: STANDARD PLATE
[2] = Test System: AMES SALMONELLA TYPHIMURIUM, Strain/Indicator: TA100, Metabolic Activation: NONE, Method: STANDARD PLATE
[3] = Test System: AMES SALMONELLA TYPHIMURIUM, Strain/Indicator: TA98, Metabolic Activation: NONE, Method: PREINCUBATION
[4] = Test System: AMES SALMONELLA TYPHIMURIUM, Strain/Indicator: TA100, Metabolic Activation: NONE, Method: PREINCUBATION

Cc1c2ccccc2c2ccc3cccc4ccc1c2c43
mutagenic call (Test System: AMES SALMONELLA TYPHIMURIUM, Strain/Indicator: TA100, Metabolic Activation: RAT, NADPH-FORTIFIED HOMOGENIZED HEPATOCYTES, AROCLOR 1254, Method: PREINCUBATION): active; positive
mutagenic call (Test System: CHINESE HAMSTER V-79, Strain/Indicator: V-79/8-AZAGUANINE, Metabolic Activation: HAMSTER, EMBRYO, CELL-MEDIATED, Method: STANDARD PLATE): active; positive

C=C(C)C(=O)OCCOCCOCCOC(=O)C(=C)C
mutagenic call (Test System: AMES SALMONELLA TYPHIMURIUM, Strain/Indicator: TA97A, Metabolic Activation: NONE, Method: STANDARD PLATE): inactive; negative
mutagenic call (Test System: AMES SALMONELLA TYPHIMURIUM, Strain/Indicator: TA97A, Metabolic Activation: RAT, LIVER, S-9, PHENOBARBITAL AND BETA-NAPHTHAFLAVONE, Method: STANDARD PLATE): inactive; negative
mutagenic call [1]: inactive; negative
mutagenic call (Test System: AMES SALMONELLA TYPHIMURIUM, Strain/Indicator: TA98, Metabolic Activation: RAT, LIVER, S-9, PHENOBARBITAL AND BETA-NAPHTHAFLAVONE, Method: STANDARD PLATE): inactive; negative
mutagenic call [2]: inactive; negative
mutagenic call (Test System: AMES SALMONELLA TYPHIMURIUM, Strain/Indicator: TA100, Metabolic Activation: RAT, LIVER, S-9, PHENOBARBITAL AND BETA-NAPHTHAFLAVONE, Method: STANDARD PLATE): inactive; negative
mutagenic call (Test System: AMES SALMONELLA TYPHIMURIUM, Strain/Indicator: TA102, Metabolic Activation: NONE, Method: STANDARD PLATE): inactive; negative
mutagenic call (Test System: AMES SALMONELLA TYPHIMURIUM, Strain/Indicator: TA102, Metabolic Activation: RAT, LIVER, S-9, PHENOBARBITAL AND BETA-NAPHTHAFLAVONE, Method: STANDARD PLATE): inactive; negative
mutagenic call (Test System: CHINESE HAMSTER V-79, Strain/Indicator: V-79 (HPRT)/6-THIOGUANINE, Metabolic Activation: NONE): active; positive
mutagenic call (Test System: CHINESE HAMSTER V-79, Strain/Indicator: V-79 (HPRT)/6-THIOGUANINE, Metabolic Activation: R, L, S-9, PHENOBARBITAL AND BETA-NAPHTHOFLAVONE): inactive; negative

CC(=O)Nc1ccc2cccnc2c1
mutagenic call [3]: inactive; negative
mutagenic call (Test System: AMES SALMONELLA TYPHIMURIUM, Strain/Indicator: TA98, Metabolic Activation: RAT, LIVER, S-9, KANECHLOR 500, Method: PREINCUBATION): active; positive
mutagenic call [4]: inactive; negative
mutagenic call (Test System: AMES SALMONELLA TYPHIMURIUM, Strain/Indicator: TA100, Metabolic Activation: RAT, LIVER, S-9, KANECHLOR 500, Method: PREINCUBATION): active; positive

CC(=O)N(O)c1ccc2ccc3cccc4ccc1c2c34
mutagenic call (Test System: AMES SALMONELLA TYPHIMURIUM, Strain/Indicator: TA98(1,8-DNP6), Metabolic Activation: NONE, Method: STANDARD PLATE): active; positive
mutagenic call (Test System: AMES SALMONELLA TYPHIMURIUM, Strain/Indicator: TA98(1,8-DNP6), Metabolic Activation: RAT, LIVER, S-9, AROCLOR 1254, Method: STANDARD PLATE): active; positive
mutagenic call (Test System: AMES SALMONELLA TYPHIMURIUM, Strain/Indicator: TA98(NR), Metabolic Activation: NONE, Method: STANDARD PLATE): active; positive
mutagenic call (Test System: AMES SALMONELLA TYPHIMURIUM, Strain/Indicator: TA98(NR), Metabolic Activation: RAT, LIVER, S-9, AROCLOR 1254, Method: STANDARD PLATE): active; positive
mutagenic call [1]: active; positive
mutagenic call (Test System: AMES SALMONELLA TYPHIMURIUM, Strain/Indicator: TA98, Metabolic Activation: RAT, LIVER, S-9, AROCLOR 1254, Method: STANDARD PLATE): active; positive

Cc1cnc2ccccc2n1
mutagenic call [3]: inactive; negative
mutagenic call (Test System: AMES SALMONELLA TYPHIMURIUM, Strain/Indicator: TA98, Metabolic Activation: RAT, LIVER, S-9, AROCLOR 1254, Method: PREINCUBATION): inactive; negative
mutagenic call [4]: inactive; negative
mutagenic call (Test System: AMES SALMONELLA TYPHIMURIUM, Strain/Indicator: TA100, Metabolic Activation: RAT, LIVER, S-9, AROCLOR 1254, Method: PREINCUBATION): inactive; negative
mutagenic call (Test System: AMES SALMONELLA TYPHIMURIUM, Strain/Indicator: TA102, Metabolic Activation: NONE, Method: PREINCUBATION): inactive; negative
mutagenic call (Test System: AMES SALMONELLA TYPHIMURIUM, Strain/Indicator: TA102, Metabolic Activation: RAT, LIVER, S-9, AROCLOR 1254, Method: PREINCUBATION): inactive; negative

C[C@H](CC1=C(C=O)CO[C@@H]1O)C1=CCC(C)(C)C1
mutagenic call [1]: inactive; negative
mutagenic call [2]: inactive; negative
mutagenic call (Test System: AMES SALMONELLA TYPHIMURIUM, Strain/Indicator: TA2637, Metabolic Activation: NONE, Method: STANDARD PLATE): inactive; negative

CC/C=C/C#N
mutagenic call (Test System: AMES SALMONELLA TYPHIMURIUM, Strain/Indicator: TA97, Metabolic Activation: HAMSTER, LIVER, S-9, AROCLOR 1254 (10%), Method: PREINCUBATION): inactive; negative
mutagenic call (Test System: AMES SALMONELLA TYPHIMURIUM, Strain/Indicator: TA97, Metabolic Activation: HAMSTER, LIVER, S-9, AROCLOR 1254 (30%), Method: PREINCUBATION): inactive; negative
mutagenic call (Test System: AMES SALMONELLA TYPHIMURIUM, Strain/Indicator: TA97, Metabolic Activation: NONE, Method: PREINCUBATION): inactive; negative
mutagenic call (Test System: AMES SALMONELLA TYPHIMURIUM, Strain/Indicator: TA97, Metabolic Activation: RAT, LIVER, S-9, AROCLOR 1254 (10%), Method: PREINCUBATION): inactive; negative
mutagenic call (Test System: AMES SALMONELLA TYPHIMURIUM, Strain/Indicator: TA97, Metabolic Activation: RAT, LIVER, S-9, AROCLOR 1254 (30%), Method: PREINCUBATION): inactive; negative
mutagenic call (Test System: AMES SALMONELLA TYPHIMURIUM, Strain/Indicator: TA98, Metabolic Activation: HAMSTER, LIVER, S-9, AROCLOR 1254 (10%), Method: PREINCUBATION): inactive; negative
mutagenic call (Test System: AMES SALMONELLA TYPHIMURIUM, Strain/Indicator: TA98, Metabolic Activation: HAMSTER, LIVER, S-9, AROCLOR 1254 (30%), Method: PREINCUBATION): inactive; negative
mutagenic call [3]: inactive; negative
mutagenic call (Test System: AMES SALMONELLA TYPHIMURIUM, Strain/Indicator: TA98, Metabolic Activation: RAT, LIVER, S-9, AROCLOR 1254 (10%), Method: PREINCUBATION): inactive; negative
mutagenic call (Test System: AMES SALMONELLA TYPHIMURIUM, Strain/Indicator: TA98, Metabolic Activation: RAT, LIVER, S-9, AROCLOR 1254 (30%), Method: PREINCUBATION): inactive; negative
mutagenic call (Test System: AMES SALMONELLA TYPHIMURIUM, Strain/Indicator: TA100, Metabolic Activation: HAMSTER, LIVER, S-9, AROCLOR 1254 (10%), Method: PREINCUBATION): inactive; negative
mutagenic call (Test System: AMES SALMONELLA TYPHIMURIUM, Strain/Indicator: TA100, Metabolic Activation: HAMSTER, LIVER, S-9, AROCLOR 1254 (30%), Method: PREINCUBATION): inactive; negative
mutagenic call [4]: inactive; negative
mutagenic call (Test System: AMES SALMONELLA TYPHIMURIUM, Strain/Indicator: TA100, Metabolic Activation: RAT, LIVER, S-9, AROCLOR 1254 (10%), Method: PREINCUBATION): inactive; negative
mutagenic call (Test System: AMES SALMONELLA TYPHIMURIUM, Strain/Indicator: TA100, Metabolic Activation: RAT, LIVER, S-9, AROCLOR 1254 (30%), Method: PREINCUBATION): inactive; negative
mutagenic call (Test System: AMES SALMONELLA TYPHIMURIUM, Strain/Indicator: TA1535, Metabolic Activation: HAMSTER, LIVER, S-9, AROCLOR 1254 (10 OR 30%), Method: PREINCUBATION): inactive; negative
mutagenic call (Test System: AMES SALMONELLA TYPHIMURIUM, Strain/Indicator: TA1535, Metabolic Activation: NONE, Method: PREINCUBATION): inactive; negative
mutagenic call (Test System: AMES SALMONELLA TYPHIMURIUM, Strain/Indicator: TA1535, Metabolic Activation: RAT, LIVER, S-9, AROCLOR 1254 (10%), Method: PREINCUBATION): inactive; negative
mutagenic call (Test System: AMES SALMONELLA TYPHIMURIUM, Strain/Indicator: TA1535, Metabolic Activation: RAT, LIVER, S-9, AROCLOR 1254 (30%), Method: PREINCUBATION): inactive; negative
mutagenic call (Test System: AMES SALMONELLA TYPHIMURIUM, Strain/Indicator: TA1537, Metabolic Activation: HAMSTER, LIVER, S-9, AROCLOR 1254 (10 OR 30%), Method: PREINCUBATION): inactive; negative

CCCCC/C=C/C=O
mutagenic call (Test System: CHINESE HAMSTER V-79, Strain/Indicator: V-79/6-THIOGUANINE, Metabolic Activation: NONE, Method: STANDARD PLATE): active; positive
mutagenic call (Test System: CHINESE HAMSTER V-79, Strain/Indicator: V-79/OUABAIN, Metabolic Activation: NONE, Method: STANDARD PLATE): inactive; negative
